According to publication PMC2818879 (Journal of medicinal chemistry, 2010):

Experiments:
6-OHDA lesioned rats = test: Rotational experiment with 6-OH-DA unilaterally lesioned rats; type: in vivo, rat
[1] = system: reserpine-induced hypolocomotion in rats; test: Reversal of reserpine-induced hypolocomotion in rats; conditions: 10 µMol/kg s.c.; for Effect compared to reserpine control (ANOVA, Dunnett's analysis): horizontal activity, six rats
cloned human D2 receptor = cloned human D2 receptor (Homo sapiens, UniProt P14416); test: Stimulation of [35S]GTPγS binding, D2 receptor expressed in CHO cells; conditions: read-out: CHO-D2 %Emax
cloned human D2 receptor, sequence (P14416 whole entry): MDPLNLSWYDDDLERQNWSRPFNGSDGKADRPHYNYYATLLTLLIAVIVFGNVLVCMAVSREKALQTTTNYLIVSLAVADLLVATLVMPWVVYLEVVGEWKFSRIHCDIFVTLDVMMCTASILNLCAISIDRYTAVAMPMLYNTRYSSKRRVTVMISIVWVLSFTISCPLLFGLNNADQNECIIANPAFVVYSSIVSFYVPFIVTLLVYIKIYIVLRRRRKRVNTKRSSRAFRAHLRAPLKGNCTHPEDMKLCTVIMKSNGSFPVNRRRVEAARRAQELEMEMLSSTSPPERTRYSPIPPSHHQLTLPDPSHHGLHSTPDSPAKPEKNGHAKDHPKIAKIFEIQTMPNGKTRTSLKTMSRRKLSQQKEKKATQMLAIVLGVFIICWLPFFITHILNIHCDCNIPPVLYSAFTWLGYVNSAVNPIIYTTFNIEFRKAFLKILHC

cloned rat D3 receptor = cloned rat D3 receptor (Rattus norvegicus, UniProt P19020); test: Inhibition of [3H]spiperone binding to D3 receptors expressed in HEK-293 cells; conditions: ratio of Ki values

Emax (cloned human D2 receptor) | SMILES | Total rotations (contralateral) (6-OHDA lesioned rats; 5 µMol/kg s.c.) | Time of peak effect (rotations) (6-OHDA lesioned rats; 10 µMol/kg s.c.) | Total rotations (contralateral) (6-OHDA lesioned rats; 10 µMol/kg s.c.) | Effect compared to reserpine control (ANOVA, Dunnett's analysis) [1] | also measured
 | CCCN(CCN1CCN(c2cccc3ncccc23)CC1)[C@H]1CCc2nc(N)sc2C1 [(−)-24b, (S)-N^6-Propyl-N^6-(2-(4-(quinolin-5-yl)piperazin-1-yl)ethyl)-4,5,6,7-tetrahydrobenzo[d]thiazole-2,6-diamine] | 2295 | around 7.5 h | 2648 | significantly different | Time of peak effect (rotations) (6-OHDA lesioned rats; 5 µMol/kg s.c.): around 5 h
 | CCCN(CCN1CCN(c2ccnc3ccccc23)CC1)[C@H]1CCc2nc(N)sc2C1 [(−)-24a, (S)-N^6-Propyl-N^6-(2-(4-(quinolin-4-yl)piperazin-1-yl)ethyl)-4,5,6,7-tetrahydrobenzo[d]thiazole-2,6-diamine] |  |  |  | not statistically significant | Reversal of reserpine-induced hypolocomotion ([1]; reserpine 5 mg/kg s.c. 18 h before, locomotion monitored 6 h): much less active compared to 24b and 24c
83.9 ± 0.3% | CCCN(CCC)CCc1cccc2c1CC(=O)N2 [Ropinirole, reference compound] |  |  |  | significantly different | 
119 ± 6% | CCCN(CCN1CCN(c2ccc(-c3ccccc3)cc2)CC1)[C@H]1CCc2nc(N)sc2C1 [Compound 2] |  |  |  |  | 
88.4 ± 3.9% | CCCN(CCN1CCN(c2nccc3ccccc23)CC1)[C@H]1CCc2nc(N)sc2C1 [(−)-24c, (S)-N^6-(2-(4-(Isoquinolin-1-yl)piperazin-1-yl)ethyl)-N^6-propyl-4,5,6,7-tetrahydrobenzo[d]-thiazole-2,6-diamine] | 2805 | about 7 h | 3688 | significantly different | 
